The results in this text go back to publication PMC9643456, “Matching amino acids membrane preference profile to improve activity of antimicrobial peptides” (Communications Biology, 2022).

Values after ≈ are worked out from the molar mass of the structure shown. Square brackets hold non-standard residues; d marks the D form. Ends that are not written are not given here. Peptide text beside a SMILES is read from it. Bounds are passed on as bounds.

One data set concerns human red blood cells. The experiment in a line: Hemolytic activity. The format is cell-based. Put shortly: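 Peptides (100 μM down to 0.78 μM) were incubated with 4% final human erythrocytes in PBS for 18 h at 37 °C. Supernatant absorbance at 540 nm after centrifugation was scaled to 1% Triton X-100 (100%) and no peptide (0%); melittin served as positive control; triplicate runs.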

For a further data set, the system named is DMPC:DMPG liposomes. Briefly: Isothermal titration calorimetry, peptide-liposome interaction. In kind it is binding. To be noted: ITC, PBS, 37 °C. The protocol: Liposomes were prepared using 1,2-dimyristoyl-sn-glycero-3-(phospho-rac-(1-glycerol)) (sodium salt) (DMPG) (Avanti, Alabama, USA); 1,2-dimyristoyl-sn-glycero-3-phosphocholine (DMPC) (Avanti); and cholesterol (Sigma, Darmstadt, Germany) were used. Bacterial membrane mimic DMPC/DMPG (7/3) unilamellar vesicles (LUVs), and mammalian membrane mimic DMPC/cholesterol (10/1) vesicles with 100-nm diameters were prepared using the freeze-thaw and extrusion method. Lipids were mixed and dissolved in methanol in round-bottomed flasks then evaporated and freeze-dried overnight, yielding a thin layer of lipid covering the glass wall. PBS was added to the lipid layer, after which the PBS-lipid layer was vortexed then frozen in liquid nitrogen and thawed in 50 °C water repeatedly until no visible layer remained. LiposoFast Liposome Factory Basic unit with stabilizer (Avestin, Ottawa, Canada) was then used to extrude the liposomes 50 times through a polycarbonate membrane filter (pore diameter, 100 nm; filter diameter, 0.75 inches) (Avestin). For circular dichroism, isothermal titration calorimetry, tryptophan fluorescence, and dynamic light scattering experiments, liposomes were reconstructed and resuspended in PBS (Welgene Inc, Gyeongsangbuk-do, Korea).
PC/PG liposome stock solutions and peptide solutions were diluted in PBS and degassed for 30 min. Peptide solutions (2 ml, 40 μM) were then loaded into a VP-ITC MicroCalorimeter (MicroCal, Northampton, USA). Liposome samples (600 μl, 2000 μM) were injected into the VP-ITC using a syringe. Measurement parameters were as follows: cell temperature, 37 °C; total injections, 30; reference power, 10; initial delay, 300; stirring speed, 300; edit mode, 10.0/12.0/200/2. Liposome solution (10 μl) was injected into the peptide solution 30 times. Each experiment was performed in duplicate. The results were calculated using MicroCal analysis.

The subject of another data set is A. baumannii strains. The experiment in a line: microbe, parasite or virus in culture. The settings on record: for Number of A. baumannii strains at MIC (μM) 0.63 / Number of A. baumannii strains at MIC (μM) 1.25 / Number of A. baumannii strains at MIC (μM) 2.5 / Number of A. baumannii strains at MIC (μM) 5 / Number of A. baumannii strains at MIC (μM) 10 / Number of A. baumannii strains at MIC (μM) ≤0.31 / Number of A. baumannii strains at MIC (μM) ≥20: of 30 strains.

As for RLWWRWIVR-NH2 [HLWCopW29-4], the “Hemolysis percent, 25 μM” value in the data set with human red blood cells (red cells of human, 18 h, 25) was determined as 1.02 ±0.01%. The “Hemolysis percent, 50 μM” value with human red blood cells (red cells of human, 18 h, 50) is given as 1.08 ±0.04%. The “Hemolysis percent, 100 μM” value with human red blood cells (red cells of human, 18 h, 100) is 2.47 ±0.03%. Moreover, the ΔS in the data set with DMPC:DMPG liposomes (2nd run) is -23.6 cal/moldeg.

Turning to Colistin, in the data set with human red blood cells (peptide 25 μM, 8% human red blood cells in PBS (final 4%), 18 h 37 °C, absorbance 540 nm, 1% Triton X-100 = 100%, triplicate), the “Hemolysis percent, 25 μM” value was 0.24 ±0.09%. In the data set on human red blood cells (peptide 50 μM, 8% human red blood cells in PBS (final 4%), 18 h 37 °C, absorbance 540 nm, 1% Triton X-100 = 100%, triplicate), the “Hemolysis percent, 50 μM” value amounted to 0.31%. Further, the “Hemolysis percent, 100 μM” value with human red blood cells (peptide 100 μM, 8% human red blood cells in PBS (final 4%), 18 h 37 °C, absorbance 540 nm, 1% Triton X-100 = 100%, triplicate) stood at 0.39 ±0.06%. Besides, in the data set with A. baumannii strains (30 A. baumannii strains, including 27 carbapenem-resistant, CLSI broth microdilution), the MIC50 worked out at 0.63 µM. Moreover, in the data set with A. baumannii strains (CLSI), the “MIC, A. baumannii ATCC 17978” value worked out at 0.63 µM; the “MIC, A. baumannii ATCC BBA 1605” value turned out to be 0.63 µM; the “MIC, A. baumannii Isolated strain 1” value worked out at 0.63 µM; the “MIC, A. baumannii Isolated strain 3” value is more than 20 µM. Besides, in the data set on A. baumannii strains (CLSI), the “MIC, A. baumannii Isolated strain 6” value amounted to 2.5 µM; the “MIC, A. baumannii Isolated strain 10” value was 2.5 µM; the “MIC, A. baumannii Isolated strain 14” value was 1.25 µM; the “MIC, A. baumannii Isolated strain 15” value was determined as 0.63 µM. Also, in the data set with A. baumannii strains (CLSI), the “MIC, A. baumannii Isolated strain 16” value was less than 0.31 µM; the “MIC, A. baumannii Isolated strain 19” value was less than 0.31 µM; the “MIC, A. baumannii Isolated strain 22” value stood at 1.25 µM; the “MIC, A. baumannii Isolated strain 39” value was less than 0.31 µM. Moreover, in the data set on A. baumannii strains (CLSI), the “MIC, A. baumannii Isolated strain 44” value is 1.25 µM; the “MIC, A. baumannii Isolated strain 66” value is 1.25 µM; the “MIC, A. baumannii Isolated strain 68” value came to 0.63 µM; the “MIC, A. baumannii Isolated strain 69” value worked out at 1.25 µM. For the same compound, in the data set on A. baumannii strains (CLSI), the “MIC, A. baumannii Isolated strain 71” value amounted to 1.25 µM; the “MIC, A. baumannii Isolated strain 76” value was less than 0.31 µM; the “MIC, A. baumannii Isolated strain 80” value came to 0.63 µM; the “MIC, A. baumannii Isolated strain 82” value was determined as 0.63 µM. Besides, in the data set with A. baumannii strains (CLSI), the “MIC, A. baumannii Isolated strain 86” value amounted to 0.63 µM; the “MIC, A. baumannii Isolated strain 89” value is 2.5 µM; the “MIC, A. baumannii Isolated strain 102” value came to 0.63 µM; the “MIC, A. baumannii Isolated strain 127” value amounted to 0.63 µM. Further, in the data set with A. baumannii strains (CLSI), the “MIC, A. baumannii Isolated strain 141” value was less than 0.31 µM; the “MIC, A. baumannii Isolated strain 144” value stood at 0.63 µM; the “MIC, A. baumannii Isolated strain 147” value came out at 5 µM; the “MIC, A. baumannii Isolated strain 152” value amounted to 1.25 µM. Further, in the data set on A. baumannii strains (CLSI), the “MIC, A. baumannii KCCM 40203” value was determined as 0.63 µM and the “MIC, A. baumannii NCCP 14654” value came to 1.25 µM. In addition, in the data set with A. baumannii strains, the “Number of A. baumannii strains at MIC (μM) 0.63” value stood at 12, the “Number of A. baumannii strains at MIC (μM) 1.25” value worked out at 8, the “Number of A. baumannii strains at MIC (μM) 2.5” value was found to be 3 and the “Number of A. baumannii strains at MIC (μM) 5” value is given as 1. Also, in the data set on A. baumannii strains, the “Number of A. baumannii strains at MIC (μM) 10” value is on record as 0, the “Number of A. baumannii strains at MIC (μM) ≤0.31” value was 5 and the “Number of A. baumannii strains at MIC (μM) ≥20” value is on record as 1.

In the data set on DMPC:DMPG liposomes (run shown in Fig. 2a or run not numbered), `CC[C@@H](C)[C@@H](NC(=O)[C@@H](Cc1c[nH]c2ccccc12)NC(=O)[C@H](NC(=O)[C@@H](CC(C)C)NC(=O)[C@H](N)Cc1c[nH]c2ccccc12)C(C)C)C(=O)N[C@H](Cc1c[nH]c2ccccc12)C(=O)N[C@H](CCCNC(=N)N)C(=O)N[C@H](CCCNC(=N)N)C(=O)N[C@H](CCCNC(=N)N)C(N)=O` [WCopW29] (H-[dW][dL][dV][dW][dI][dW][dR][dR][dR]-NH2) had a ΔS of 18.2 cal/mol deg. Moreover, in the data set on A. baumannii strains, the “Number of A. baumannii strains at MIC (μM) 0.63” value is listed as 3, the “Number of A. baumannii strains at MIC (μM) 1.25” value turned out to be 25, the “Number of A. baumannii strains at MIC (μM) 2.5” value is recorded as 2 and the “Number of A. baumannii strains at MIC (μM) 5” value is reported as 0. In the data set with A. baumannii strains, the “Number of A. baumannii strains at MIC (μM) 10” value came to 0, the “Number of A. baumannii strains at MIC (μM) ≤0.31” value was 0 and the “Number of A. baumannii strains at MIC (μM) ≥20” value stood at 0. Moreover, in the data set with A. baumannii strains (strains, 18 h), the “MIC, A. baumannii ATCC 17978” value stood at 2.5 µM (≈ 3.42 µg/mL); the “MIC, A. baumannii ATCC BBA 1605” value amounted to 0.63 µM (≈ 0.863 µg/mL); the “MIC, A. baumannii Isolated strain 1” value was found to be 1.25 µM (≈ 1.71 µg/mL); the “MIC, A. baumannii Isolated strain 3” value was 2.5 µM (≈ 3.42 µg/mL). Further, in the data set on A. baumannii strains (strains, 18 h), the “MIC, A. baumannii Isolated strain 6” value was determined as 1.25 µM (≈ 1.71 µg/mL); the “MIC, A. baumannii Isolated strain 10” value was found to be 1.25 µM (≈ 1.71 µg/mL); the “MIC, A. baumannii Isolated strain 14” value came to 1.25 µM (≈ 1.71 µg/mL); the “MIC, A. baumannii Isolated strain 15” value stood at 1.25 µM (≈ 1.71 µg/mL). Further, in the data set with A. baumannii strains (strains, 18 h), the “MIC, A. baumannii Isolated strain 16” value was found to be 1.25 µM (≈ 1.71 µg/mL); the “MIC, A. baumannii Isolated strain 19” value was found to be 1.25 µM (≈ 1.71 µg/mL); the “MIC, A. baumannii Isolated strain 22” value came to 1.25 µM (≈ 1.71 µg/mL); the “MIC, A. baumannii Isolated strain 39” value turned out to be 1.25 µM (≈ 1.71 µg/mL). In the data set with A. baumannii strains (strains, 18 h), the “MIC, A. baumannii Isolated strain 44” value was 1.25 µM (≈ 1.71 µg/mL); the “MIC, A. baumannii Isolated strain 66” value was determined as 1.25 µM (≈ 1.71 µg/mL); the “MIC, A. baumannii Isolated strain 68” value stood at 1.25 µM (≈ 1.71 µg/mL); the “MIC, A. baumannii Isolated strain 69” value was found to be 1.25 µM (≈ 1.71 µg/mL). Further, in the data set on A. baumannii strains (strains, 18 h), the “MIC, A. baumannii Isolated strain 71” value is 1.25 µM (≈ 1.71 µg/mL); the “MIC, A. baumannii Isolated strain 76” value was 1.25 µM (≈ 1.71 µg/mL); the “MIC, A. baumannii Isolated strain 80” value came to 0.63 µM (≈ 0.863 µg/mL); the “MIC, A. baumannii Isolated strain 82” value is 1.25 µM (≈ 1.71 µg/mL). In the data set with A. baumannii strains (strains, 18 h), the “MIC, A. baumannii Isolated strain 86” value is 0.63 µM (≈ 0.863 µg/mL); the “MIC, A. baumannii Isolated strain 89” value was 1.25 µM (≈ 1.71 µg/mL); the “MIC, A. baumannii Isolated strain 102” value worked out at 1.25 µM (≈ 1.71 µg/mL); the “MIC, A. baumannii Isolated strain 127” value amounted to 1.25 µM (≈ 1.71 µg/mL). In the data set with A. baumannii strains (strains, 18 h), the “MIC, A. baumannii Isolated strain 141” value was 1.25 µM (≈ 1.71 µg/mL); the “MIC, A. baumannii Isolated strain 144” value turned out to be 1.25 µM (≈ 1.71 µg/mL); the “MIC, A. baumannii Isolated strain 147” value turned out to be 1.25 µM (≈ 1.71 µg/mL); the “MIC, A. baumannii Isolated strain 152” value was found to be 1.25 µM (≈ 1.71 µg/mL). In addition, in the data set with A. baumannii strains (strains, 18 h), the “MIC, A. baumannii KCCM 40203” value stood at 1.25 µM (≈ 1.71 µg/mL) and the “MIC, A. baumannii NCCP 14654” value was 1.25 µM (≈ 1.71 µg/mL).

Turning to WLVWIWRRR-NH2 [LWCopW29], the “Hemolysis percent, 25 μM” value in the data set with human red blood cells (red cells of human, 18 h, 25) came out at 0.84 ±0.06%. Moreover, the “Hemolysis percent, 50 μM” value with human red blood cells (red cells of human, 18 h, 50) is reported as 5.15 ±0.15%. The “Hemolysis percent, 100 μM” value in the data set with human red blood cells (red cells of human, 18 h, 100) turned out to be 13.65 ±0.74%. Moreover, the ΔS with DMPC:DMPG liposomes (1st run) and in the data set on DMPC:DMPG liposomes (2nd run) was 19.4 cal/moldeg each time.
